Tests used:
[1] = molecular target: T1, CsDIR2 (Cucumis sativus, UniProt A0A0A0KZ41); assay: TNS fluorescence displacement; assay type: binding; settings: 16 uM ligand; TNS 5 uM (methods) or 3 uM; pH 7 buffer; in cavity or allosteric
T1 construct: gene Csa_4G017140; Rosetta Gami E. coli; S-Tag thrombin purification; His-tagged
T1 sequence (A0A0A0KZ41 26-101): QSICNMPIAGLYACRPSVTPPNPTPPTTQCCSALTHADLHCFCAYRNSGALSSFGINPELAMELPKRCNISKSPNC

[2] = molecular target: T2, CsDIR1 (Cucumis sativus, UniProt A0A0A0K4Q7); assay: TNS fluorescence displacement; assay type: binding; settings: 16 uM ligand; TNS 5 uM (methods) or 3 uM; pH 7 buffer; in cavity or allosteric
T2 construct: gene Csa_7G372360; Rosetta Gami E. coli; S-Tag thrombin purification; His-tagged
T2 sequence (A0A0A0K4Q7 25-103): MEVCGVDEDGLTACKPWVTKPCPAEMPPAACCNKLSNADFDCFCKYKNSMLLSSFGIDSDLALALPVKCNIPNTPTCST

O=C(O)CCCCCCCC(=O)O [AzA]
% lower TNS fluorescence than MES control [1]: ~ 30% | % lower TNS fluorescence than MES control [2]: ~ 25%

O=C(O)[C@@H]1CCCCN1 [Pip]
% lower TNS fluorescence than MES control [2]: ~ 25%

— PMC4854023, “Orthology Analysis and In Vivo Complementation Studies to Elucidate the Role of DIR1 during Systemic Acquired Resistance in Arabidopsis thaliana and Cucumis sativus” (Frontiers in Plant Science, 2016)
